Measurements taken from patent publication US10131652B2, “Pyrimidinyloxy benzene derivatives as herbicides” (E. I. DU PONT DE NEMOURS AND COMPANY, priority 2014, dated 2018).

Key:
Format in all cases: in vivo
corn (Zea mays) = assay: Test B pre-/postemergence plant response
Summary of the method: (§1)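 Seeds in loam–sand blend given preemergence soil spray; separately, plants at one- to two-leaf stage (2–10 cm) sprayed postemergence, compounds in non-phytotoxic solvent with surfactant. Injury rated visually versus untreated controls after ~10 days in greenhouse, 0 (no effect) to 100 (complete control).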

[1] = tested on: pigweed (Amaranthus retroflexus); assay: Test B pre-/postemergence plant response
Summary of the method: as §1

[2] = tested on: giant foxtail (Setaria faberii); assay: Test B pre-/postemergence plant response
Summary of the method: as §1

[3] = tested on: wheat (Triticum aestivum); assay: Test B pre-/postemergence plant response
Summary of the method: as §1

kochia (Kochia scoparia) = assay: Test B pre-/postemergence plant response
Summary of the method: as §1

[4] = tested on: ragweed (common ragweed, Ambrosia elatior); assay: Test B pre-/postemergence plant response
Summary of the method: as §1

[5] = tested on: Italian ryegrass (Lolium multiflorum); assay: Test B pre-/postemergence plant response
Summary of the method: as §1

[6] = tested on: barnyardgrass (Echinochloa crus-galli); assay: Test B pre-/postemergence plant response
Summary of the method: as §1

[7] = tested on: galium (catchweed bedstraw, Galium aparine); assay: Test B postemergence plant response
Summary of the method: (§2)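 Weeds grown in loam soil/sand pots were sprayed postemergence at 2 to 10 cm height, one- to two-leaf stage. After approximately 10 days in greenhouse, injury was rated visually against untreated controls on a 0 (no effect) to 100 (complete control) scale; dash means no test result.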

[8] = tested on: blackgrass (Alopecurus myosuroides); assay: Test B postemergence plant response
Summary of the method: as §2

[9] = tested on: small-flower umbrella sedge (Cyperus difformis); assay: Test C flooded paddy test plant response; conditions: Flood, 250 g ai/ha; scale of 0 to 100 where 0 is no effect and 100 is complete control; 13 to 15 days
Summary of the method: (§3)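 Scale 0 (no effect) to 100 (complete control), assigned visually versus controls after 13–15 d greenhouse. Application: directly to paddy water, 3 cm flood depth kept constant, 2-leaf stage.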

rice (Oryza sativa) = assay: Test C flooded paddy test plant response; conditions: Flood, 250 g ai/ha; scale of 0 to 100 where 0 is no effect and 100 is complete control; 13 to 15 days
Summary of the method: as §3

[10] = tested on: ducksalad (Heteranthera limosa); assay: Test C flooded paddy test plant response; conditions: Flood, 250 g ai/ha; scale of 0 to 100 where 0 is no effect and 100 is complete control; 13 to 15 days
Summary of the method: as §3

[11] = tested on: barnyardgrass (Echinochloa crus-galli); assay: Test C flooded paddy test plant response; conditions: Flood, 250 g ai/ha; scale of 0 to 100 where 0 is no effect and 100 is complete control; 13 to 15 days
Summary of the method: as §3

[12] = 125 g ai/ha, postemergence, 0 to 100 scale, 0 no effect, 100 complete control
[13] = Postemergence, 31 g ai/ha, 0 to 100 scale (0 no effect, 100 complete control)
[14] = 31 g ai/ha, Preemergence, 0 to 100 scale where 0 is no effect and 100 is complete control
[15] = Preemergence, 125 g ai/ha, 0 to 100 scale (0 no effect, 100 complete control)
[16] = 500 g ai/ha, postemergence, 0 to 100 scale, 0 no effect, 100 complete control
[17] = Preemergence, 500 g ai/ha, 0 to 100 scale where 0 is no effect and 100 is complete control

Structure (SMILES)	Plant response rating, Corn (corn (Zea mays); [12])	Plant response rating, Pigweed [1, 12]	Pigweed plant response rating [1, 15]	Plant response rating, Foxtail, Giant [2, 12]	Foxtail, Giant plant response rating [2, 15]	Plant response rating, Wheat [3, 12]	Plant response rating, Kochia (kochia (Kochia scoparia); [12])	Kochia plant response rating (kochia (Kochia scoparia); [15])	Plant response rating, Ragweed [4, 12]	Ragweed plant response rating [4, 15]	Plant response rating, Ryegrass, Italian [5, 12]	Ryegrass, Italian plant response rating [5, 15]	Plant response rating, Barnyardgrass [6, 12]	Barnyardgrass plant response rating [6, 15]	Plant response rating, Galium [7, 12]	Plant response rating, Blackgrass [8, 12]	Sedge, Umbrella plant response rating [9]	Rice plant response rating (rice (Oryza sativa))	Ducksalad plant response rating [10]	Barnyardgrass plant response rating [11]	other results
Cc1csc(-c2ccccc2Oc2ncc(Cl)cn2)c1 [Compound 216]	10	30	0	0	0	0	20	0	0	0	0	0	10	10	50	10	0	0	0	0	Plant response rating, Corn (corn (Zea mays); [13]): 0; Plant response rating, Pigweed [1, 14]: 0; Plant response rating, Pigweed [1, 13]: 10; Plant response rating, Foxtail, Giant [2, 14]: 0; Plant response rating, Foxtail, Giant [2, 13]: 0; Plant response rating, Wheat [3, 13]: 0; Plant response rating, Kochia (kochia (Kochia scoparia); [14]): 0; Plant response rating, Kochia (kochia (Kochia scoparia); [13]): 10; Plant response rating, Ragweed [4, 14]: 0; Plant response rating, Ragweed [4, 13]: 0; Plant response rating, Ryegrass, Italian [5, 14]: 0; Plant response rating, Ryegrass, Italian [5, 13]: 0; Plant response rating, Barnyardgrass [6, 14]: 0; Plant response rating, Barnyardgrass [6, 13]: 10; Plant response rating, Galium [7, 13]: 20; Plant response rating, Blackgrass [8, 13]: 0
Fc1cccc(Oc2ncc(Cl)cn2)c1-c1cn(CC(F)(F)F)cn1 [Compound 217]	0	10	10	0	0	0	10	0	10	0	0	0	0	0	10	0	0	0	40	20	Plant response rating, Corn (corn (Zea mays); [16]): 0; Plant response rating, Pigweed [1, 16]: 60; Plant response rating, Pigweed [1, 17]: 70; Plant response rating, Foxtail, Giant [2, 16]: 0; Plant response rating, Foxtail, Giant [2, 17]: 30; Plant response rating, Wheat [3, 16]: 0; Plant response rating, Kochia (kochia (Kochia scoparia); [16]): 30; Plant response rating, Kochia (kochia (Kochia scoparia); [17]): 0; Plant response rating, Ragweed [4, 16]: 30; Plant response rating, Ragweed [4, 17]: 0; Plant response rating, Ryegrass, Italian [5, 16]: 0; Plant response rating, Ryegrass, Italian [5, 17]: 10; Plant response rating, Barnyardgrass [6, 16]: 0; Plant response rating, Barnyardgrass [6, 17]: 10; Plant response rating, Galium [7, 16]: 30; Plant response rating, Blackgrass [8, 16]: 0
CC(=O)c1cc(-c2ccccc2Oc2ncc(Cl)cn2)on1 [Compound 218]	0	40	90	0	60	0	0	0	0	0	0	0	0	50	10	0	0	0	0	0	Plant response rating, Corn (corn (Zea mays); [13]): 0; Plant response rating, Pigweed [1, 14]: 0; Plant response rating, Pigweed [1, 13]: 0; Plant response rating, Foxtail, Giant [2, 14]: 0; Plant response rating, Foxtail, Giant [2, 13]: 0; Plant response rating, Wheat [3, 13]: 0; Plant response rating, Kochia (kochia (Kochia scoparia); [14]): 0; Plant response rating, Kochia (kochia (Kochia scoparia); [13]): 0; Plant response rating, Ragweed [4, 14]: 0; Plant response rating, Ragweed [4, 13]: 0; Plant response rating, Ryegrass, Italian [5, 14]: 0; Plant response rating, Ryegrass, Italian [5, 13]: 0; Plant response rating, Barnyardgrass [6, 14]: 0; Plant response rating, Barnyardgrass [6, 13]: 0; Plant response rating, Galium [7, 13]: 0; Plant response rating, Blackgrass [8, 13]: 0
COc1ccnc(-c2ccccc2Oc2ncc(Cl)cn2)c1 [Compound 219]	0	10	0	0	0	0	0	0	30	0	0	0	0	0	30	0	0	0	0	0	Plant response rating, Corn (corn (Zea mays); [13]): 0; Plant response rating, Pigweed [1, 14]: 0; Plant response rating, Pigweed [1, 13]: 10; Plant response rating, Foxtail, Giant [2, 14]: 0; Plant response rating, Foxtail, Giant [2, 13]: 0; Plant response rating, Wheat [3, 13]: 0; Plant response rating, Kochia (kochia (Kochia scoparia); [14]): 0; Plant response rating, Kochia (kochia (Kochia scoparia); [13]): 0; Plant response rating, Ragweed [4, 14]: 0; Plant response rating, Ragweed [4, 13]: 20; Plant response rating, Ryegrass, Italian [5, 14]: 0; Plant response rating, Ryegrass, Italian [5, 13]: 0; Plant response rating, Barnyardgrass [6, 14]: 0; Plant response rating, Barnyardgrass [6, 13]: 0; Plant response rating, Galium [7, 13]: 20; Plant response rating, Blackgrass [8, 13]: 0
N#Cc1cc(-c2c(F)cccc2Oc2ncc(Cl)cn2)no1 [Compound 222]	30	100	90	0	0	20	30	0	20	0	0	0	0	0	90	10	0	0	30	0	Plant response rating, Corn (corn (Zea mays); [13]): 0; Plant response rating, Pigweed [1, 14]: 20; Plant response rating, Pigweed [1, 13]: 30; Plant response rating, Foxtail, Giant [2, 14]: 0; Plant response rating, Foxtail, Giant [2, 13]: 0; Plant response rating, Wheat [3, 13]: 0; Plant response rating, Kochia (kochia (Kochia scoparia); [14]): 0; Plant response rating, Kochia (kochia (Kochia scoparia); [13]): 20; Plant response rating, Ragweed [4, 14]: 0; Plant response rating, Ragweed [4, 13]: 0; Plant response rating, Ryegrass, Italian [5, 14]: 0; Plant response rating, Ryegrass, Italian [5, 13]: 0; Plant response rating, Barnyardgrass [6, 14]: 0; Plant response rating, Barnyardgrass [6, 13]: 0; Plant response rating, Galium [7, 13]: 30; Plant response rating, Blackgrass [8, 13]: 0
